“And” between values parts separate entries of the source, which are not always exact repeats. Identical values can stand only once. Like-named read-outs stand apart in the source and are kept apart here.
Experiments:
[1] = CSF concentrations of 3-SPA at Week 78 in North American Phase 3 tramiprosate trial (LC-MS/MS); assay type: in vivo, human; conditions: 150 mg BID tramiprosate; for concentration at 78 week: human, CSF, oral, 150 mg BID
Experimental: The samples were withdrawn from the freezer and shipped on dry ice to Nextcea Inc. (Woburn, MA) and stored in a freezer set to maintain−80° C. after receipt. The CSF collection and storage were carried out after subjects signed an informed consent in accordance with the ethical guidelines in the Czech Republic and good clinical practice, and according to the widely recognized consensus protocol for the standardization of CSF collection and biobanking (Viola et al., Amyloid β oligomers in Alzheimer's disease pathogenesis, treatment, and diagnosis. Acta Neuropathol 2015; 129:183-206; and Vanderstichele et al. Standardization of preanalytical aspects of cerebrospinal fluid biomarker testing for Alzheimer's disease diagnosis: A consensus paper from the Alzheimer's Biomarkers Standardization Initiative. Alzheimers Dement 2012; 8(1):65-73). Commercial ELISA kits (Innogenetics NV, Ghent, Belgium) were used for dementia biomarker analyses (Aβ1-42, tau protein, and phospho-tau), and cut off values derived from a validation study were used. CSF concentrations of 3-SPA were also quantified in 12 patients receiving the 150 mg BID dose of tramiprosate at Week 78 of the Phase 3 North American AD trial.
The 3-SPA reference material and human CSF samples were mixed with N-ethyl-N′-(3-dimethylaminopropyl) carbodiimide (EDC) and 2,2,2-trifluro ethylamine (TFEA). The samples were vortexed and reacted at room temperature for 30 minutes. The reactions were centrifuged at 4500 rpm for 5 minutes. The supernatant was transferred to a new plate for analysis. 3-SPA was identified and characterized using LC-MS and LC-MS/MS. Injections were made onto a Thermo Scientific AQUASIL 5 μm, 50×2.1 mm column using a Shimadzu autosampler and UPLC pump. Mobile phase A was 0.1% trifluoroacetic acid in water (v/v). Mobile phase B was 0.1% formic acid in 90/10 acetonitrile/water (v/v). The flow rate was 0.35 mL/min. The total running time per sample was 4 min. An API 6500 triple quadrupole mass spectrometer was used for detection. Data were acquired in negative LC-MS and LC-MS/MS modes. Representative chromatograms of 3-SPA in crude native material and human CSF derivatized with EDC and TFEA are shown in FIG. 7, FIG. 8 Panel A, and FIG. 8 Panel B. LC-MS and LC-MS/MS data were acquired using Analyst software (AB Sciex, Foster City, CA). LOQ for the LC-MS/MS method was 0.1 ng/ml with a dynamic range of 0.1 to 1000 ng/ml (r=0.99688 and % CV 5.8%±2.0; data on file). 3-SPA was identified in human CSF by matching the chromatographic retention time and by co-elution of the LC-MS/MS transition ions to the authentic 3-SPA reference standard (synthesized by Paraza Pharma, Montreal, Canada).
The levels of 3-SPA of in patients with a variety of cognition impairing diseases, including AD, ranged from 4.15 to 27.7 nM (0.64-4.27 ng/ml) (Table 1). When related to the CSF concentrations of Aβ42 monomers in AD patients (0.04 nM to 0.1 nM) (Bakan et al., ProDy: protein dynamics inferred from theory and experiments. Bioinformatics 2011; 27:1575-7; Shaw et al. Cerebrospinal fluid biomarker signature in Alzheimer's disease neuroimaging initiative subjects. Ann Neurol 2009; 65:403-13; Pannee et al. Reference measurement procedure for CSF Abeta1-42 and the CSF Abeta1-42/Abeta1-40 ratio—a crossvalidation study against Amyloid PET. J. Neurochem 2016; and Lambert et al. Diffusible, nonfibrillar ligands derived from A 1-42 are potent central nervous system neurotoxins. PNAS. 1998; 95:6448-53), there is an approximately 40-700 fold excess of 3-SPA over soluble Aβ42 monomers, which falls within the range where partial Aβ anti-oligomer aggregation activity may occur in some patients (Table 3). Furthermore, retrospective analyses of the CSF of a subset of patients from the tramiprosate Phase 3 trial were also evaluated for presence of 3-SPA, the primary metabolite of tramiprosate. […]

[2] = Brain penetration of oral 3-SPA in male SD rats (brain, CSF, plasma); assay type: in vivo, Sprague-Dawley rats; conditions: oral 30 mg/kg
Experimental: A separate group of animals was dosed orally at 30 mg/kg and terminal brain, CSF and plasma samples were collected at 1, 2, 6, and 24 hr (3 animals for each time point) for bioanalyses of 3-SPA in brain and CSF, and to estimate brain penetration relative to plasma concentrations. The in-life study was performed at Agilux Laboratories (Worcester, MA) following quality standards in line with Good Laboratory Practice. Bioanalyses of rat plasma, CSF and brain was preformed using LC-MS/MS at Nextcea. Prior to processing rat brains for bioanalysis, the brains were perfused to remove pooled blood. Pharmacokinetic data analyses were conducted using Winnonlin Professional v5.0.1 (Pharsight, Mountain View, CA).
The plasma concentration of a single dose of 3-SPA, dissolved in saline as a clear solution, administered orally and intravenously to rats at a dose level of 30 mg/kg and 10 mg/kg, respectively, are shown in FIG. 9. Brain, CSF and corresponding plasma levels after a single oral dose of dose of 30 mg/kg of 3-SPA at 1, 2, 6, and 24 hr are shown in FIG. 10. Mean PK curves were used for calculation of pharmacokinetic parameters.

**Q.** With `O=C(O)CCS(=O)(=O)O` [3-SPA, 3-sulfopropanoic acid] as the compound, how does the “CSF concentration of 3-SPA, Median” value ([1]; Week 78) read?
**A.** The value was 19.3 ng/ml and 127.5 nM.

**Q.** And the “CSF concentration of 3-SPA, Minimum-maximum” value ([1]; Week 78)?
**A.** Its value is 17.3-35.7 ng/ml and 114.3-235.8 nM.

**Q.** What about the “increase of mean CSF 3-SPA over levels observed in drug naïve patients” value ([1]; Week 78) of the same compound?
**A.** The value was 12.6 fold.

**Q.** And the “CSF concentration of 3-SPA, Mean ± SD” value ([1]; Week 78, n=6)?
**A.** Its value is 22.3 ± 7.9 ng/ml and 147 ± 51.3 nM.

**Q.** And the concentration at 78 week ([1]; Week 78, n=6, read-out: CSF concentration of 3-SPA, Mean ± SD)?
**A.** The concentration at 78 week was 147 nM.

**Q.** And the concentration at 78 week ([1]; Week 78, read-out: CSF concentration of 3-SPA, Minimum-maximum)?
**A.** Its concentration at 78 week is 114 to 236 nM.

**Q.** What about the “AUC 0-inf_obs” value ([2]; Brain) of the same compound?
**A.** Its value is 33224.4 ng·h/mL.

**Q.** And the “AUC 0-t” value ([2]; Brain)?
**A.** Its value is 7586.5 ng·h/mL.

**Q.** And the Cmax ([2]; Brain)?
**A.** The Cmax was 649.8 ng/mL.

**Q.** And the t½ ([2]; Brain)?
**A.** Its t½ is 64.07 h.

**Q.** And the “AUC 0-inf_obs” value ([2]; CSF)?
**A.** The value was 726.2 ng·h/mL.

**Q.** And the “AUC 0-t” value ([2]; CSF)?
**A.** The value was 463.6 ng·h/mL.

**Q.** And the Cmax ([2]; CSF)?
**A.** The Cmax was 159.2 ng/mL.

**Q.** And the t½ ([2]; CSF)?
**A.** Its t½ is 3.56 h.

**Q.** What about the “AUC 0-inf_obs” value ([2]; Plasma) of the same compound?
**A.** The value was 30099.2 ng·h/mL.

**Q.** What about the “AUC 0-t” value ([2]; Plasma) of the same compound?
**A.** Its value is 30001.7 ng·h/mL.

**Q.** What about the Cmax ([2]; Plasma) of the same compound?
**A.** The Cmax was 5714.6 ng/mL.

**Q.** What about the t½ ([2]; Plasma) of the same compound?
**A.** Its t½ is 3.03 h.

**Q.** And the “CSF/brain AUC %” value [2]?
**A.** Its value is 6.1%.

**Q.** What about the “Brain/Plasma (AUC %), brain penetration” value ([2]; 30 mg/kg) of the same compound?
**A.** Its value is 25% and 25.3%.

— patent publication US12083082B2, “Methods for treating neurodegenerative disorders” (Alzheon, Inc., priority 2018, dated 2024)
